Experimental data published in patent publication US7687620B2, “[1,4]diazepino[6,7,1-IJ]quinoline derivatives as antipsychotic and antiobesity agents” (Wyeth LLC, priority 2002, dated 2010).
Structures can show the parent of a compound that is named as a salt. Where two headings read alike, the source gives them in different places.

Key:
[1] = target: T1, human 5-hydroxytryptamine2C (h5HT2C) receptor (Homo sapiens, UniProt P28335); assay: 5HT2C receptor binding ([125I]DOI displacement, CHO cell membranes)
T1 construct: expressed in transfected cells; host or cells: CHO (Chinese Hamster Ovary) cells; membrane preparation
T1 sequence (P28335 33-458): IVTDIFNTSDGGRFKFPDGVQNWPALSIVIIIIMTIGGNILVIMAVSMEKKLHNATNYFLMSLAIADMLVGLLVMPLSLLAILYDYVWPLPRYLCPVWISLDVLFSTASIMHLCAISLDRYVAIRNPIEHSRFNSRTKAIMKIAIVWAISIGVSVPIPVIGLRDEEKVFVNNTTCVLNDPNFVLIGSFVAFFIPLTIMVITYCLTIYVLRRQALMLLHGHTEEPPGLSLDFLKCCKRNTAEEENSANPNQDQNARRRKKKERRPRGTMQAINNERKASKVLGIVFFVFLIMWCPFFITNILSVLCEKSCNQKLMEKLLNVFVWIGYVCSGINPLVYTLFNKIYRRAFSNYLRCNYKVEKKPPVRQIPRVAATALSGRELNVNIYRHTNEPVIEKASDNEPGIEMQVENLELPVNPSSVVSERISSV

human 5-HT2C receptor = target: T2, human 5-HT2C receptor (Homo sapiens, UniProt P28335); assay: Calcium mobilization in response to 5-HT2C receptor agonists (FLIPR, CHO cells); assay type: cell-based; conditions: for Emax: CHO, read-out: 5-HT2C Function Emax (%) (5-HT, 100%); for EC50: calcium mobilization, CHO cells stably expressing human 5-HT2C, read-out: 5-HT2C Function EC50
T2 sequence (P28335 33-458): T1 sequence (P28335 33-458)

| SMILES | Ki [1] | further results |
| --- | --- | --- |
| Fc1ccc2c3c1C1CCCCCC1CN3CCNC2 (stereo not shown) [Example 28, 1-fluoro-4,5,6,7,9,9a,10,11,12,13,14,14a-dodecahydrocyclohepta[c][1,4]diazepino[6,7,1-ij]quinoline hydrochloride] | 169 nM |  |
| COc1cc2c3c(c1F)C1CCCCCC1CN3CCNC2 (stereo not shown) [Example 34, 1-fluoro-2-methoxy-4,5,6,7,9,9a,10,11,12,13,14,14a-dodecahydrocyclohepta[c][1,4]diazepino[6,7,1-ij]quinoline hydrochloride] | 249 nM |  |
| c1cc2c3c(c1)[C@H]1CCCCC[C@H]1CN3CCNC2 [Example 10, (9aR,14aS)-4,5,6,7,9,9a10,11,12,13,14,14a-dodecahydrocyclohepta[c][1,4]diazepino[6,7,1-ij]quinoline hydrochloride] | 56 nM |  |
| Fc1ccc2c3c1C1CCCC1CN3CCNC2 (stereo not shown) [Example 26, 1-fluoro-4,5,6,7,9,9a,10,11,12,12a-decahydrocyclopenta[c][1,4]diazepino[6,7,1-ij]quinoline hydrochloride] | 20 nM |  |
| FC(F)(F)c1ccc2c3c1C1CCCC1CN3CCNC2 (stereo not shown) [Example 30, 1-(trifluoromethyl)-4,5,6,7,9,9a,10,11,12,12a-decahydrocyclopenta[c][1,4]diazepino[6,7,1-ij]quinoline hydrochloride] | 59 nM |  |
| c1cc2c3c(c1)C1CCCCC1CN3CCNC2 (stereo not shown) [Example 6, 4,5,6,7,9a,10,11,12,13,13a-decahydro-9H-[1,4]diazepino[6,7,1-de]phenanthridine hydrochloride] | 24 nM | Emax (human 5-HT2C receptor): 60%; EC50 (human 5-HT2C receptor): 65 nM |
| c1cc2c3c(c1)C1CCCC1CN3CCNC2 (single isomer, unassigned; (-)) [Example 4, (−)-4,5,6,7,9,9a10,11,12,12a-decahydrocyclopenta[c][1,4]diazepino[6,7,1-ij]quinoline] | 3 nM | Emax (human 5-HT2C receptor): 100%; EC50 (human 5-HT2C receptor): 8 nM |
| COc1cc2c3c(c1)C1CCCC1CN3CCNC2 (stereo not shown) [Example 24, 2-methoxy-4,5,6,7,9,9a,10,11,12,12a-decahydrocyclopenta[c][1,4]diazepino[6,7,1-ij]quinoline hydrochloride] | 199 nM |  |
| c1cc2c3c(c1)C1CCCCCC1CN3CCNC2 (stereo not shown) [Example 8, 4,5,6,7,9,9a,10,11,12,13,14,14a-dodecahydrocyclohepta[c][1,4]diazepino[6,7,1-ij]quinoline] | 13 nM | Emax (human 5-HT2C receptor): 70%; EC50 (human 5-HT2C receptor): 261 nM |
| CSc1ccc2c(c1)C(N1CCN(C)CC1)Cc1ccccc1S2 (stereo not shown) [Methiothepin, reference compound] |  | Ki ([1]; [125I]DOI binding, CHO membranes expressing h5HT2C, 95% confidence interval in brackets, read-out: Ki (95% confidence interval), reference compounds): 4.6 nM |
| COc1cc(CC(C)N)c(OC)cc1I (stereo not shown) [[^125I]DOI, reference compound] |  | Kd ([1]; read-out: dissociation constant, KD of [125I]DOI at the human serotonin 5HT2C receptor, saturation binding with increasing concentrations of [125I]DOI): 0.4 nM |
| COc1cc2c3c(c1F)C1CCCC1CN3CCNC2 (stereo not shown) [Example 32, 1-fluoro-2-methoxy-4,5,6,7,9,9a,10,11,12,12a-decahydrocyclopenta[c][1,4]diazepino[6,7,1-ij]quinoline hydrochloride] | 223 nM |  |
| Clc1cc2c3c(c1)C1CCCCCC1CN3CCNC2 (stereo not shown) [Example 20, 2-chloro-4,5,6,7,9,9a,10,11,12,13,14,14a-dodecahydrocyclohepta[c][1,4]diazepino[6,7,1-ij]quinoline hydrochloride] | 373 nM |  |
| c1cc2c3c(c1)[C@@H]1CCCCC[C@@H]1CN3CCNC2 [Example 12, (9aS,14aR)-4,5,6,7,9,9a,10,11,12,13,14,14a-dodecahydrocyclohepta[c][1,4]diazepino[6,7,1-ij]quinoline hydrochloride] | 117 nM |  |
| Brc1cc2c3c(c1)C1CCCCCC1CN3CCNC2 (stereo not shown) [Example 16, 2-bromo-4,5,6,7,9,9a,10,11,12,13,14,14a-dodecahydrocyclohepta[c][1,4]diazepino[6,7,1-ij]quinoline hydrochloride] | 2300 nM |  |
| c1ccc(-c2cc3c4c(c2)C2CCCC2CN4CCNC3)cc1 (stereo not shown) [Example 22, 2-phenyl-4,5,6,7,9,9a,10,11,12,12a-decahydrocyclopenta[c][1,4]diazepino[6,7,1-ij]quinoline hydrochloride] | 88 nM |  |
